From patent publication US8524911B2, “3-arylamino pyridine derivatives” (Merck Serono SA, priority 2004, dated 2013)

Experiments:
human MEK1 = human MEK1 (Homo sapiens, UniProt Q02750); assay: MEK-1 Enzyme Assay (LANCE-HTRF); assay type: biochemical; settings: 100 nM MEK1, 15 μM ATP, 300 nM ERK2, two hours; read-out: MEK inhibition
Procedure: Assay 1: MEK-1 Enzyme Assay (LANCE-HTRF)
The activity of the compounds of the present invitation may be determined by the following procedure; Inhibition of human MEK1 kinase activity was monitored with a homogenous, fluorescence based assay. The assay uses time resolved fluorescence resonance energy transfer to probe for phosphorylation of ERK1 by MEK1. The assay is carried out in low volume 96 well microtiterplates. […] After two hours, 5 nM Europium-anti-PY20 (Perkin Elmer) and 50 nM Anti-GST-Allophycocyanin (CisBio) in buffer containing 50 mM EDTA and 0.05% BSA are added and the reaction incubated for one hour in the dark. Time-resolved fluorescence is measured using a LJL-Analyst (Molecular Devices) with an excitation wavelength of 340 nm and an emission wavelength of 665 nm. The final concentration of DMSO is 2%.

Murine colon C26 cells = assay: Tumor cell proliferation assay (ATP Lite), C26; assay type: cell-based; settings: Mus musculus, 96 h, 4 days
Procedure: (§1) Assay 2: Tumor Cell Proliferation Assays (ATP Lite)
(§2) Murine colon C26, human melanoma A375 and MeI5 or human pancreatic MiaPaCa-2 cells were plated in 96 well Corning white plates (1500 cells/well for C26, and 2000 cells/well for A375, and MiaPaCa-2) and cultured overnight at 37° C. in 5% CO2. Inhibitors were serially diluted in 100% DMSO and subsequently added to cells to reach a final concentration of 0.25% DMSO. The cells were incubated for 4 days in the presence of test compounds in cell growth media (DMEM with 10% fetal bovine serum, 2 mM glutamine for C26, and MiaPaCa-2, and RPMI with 10% fetal bovine serum, 2 mM glutamine for A375). Cell proliferation was quantitated using the ATP lite cell proliferation kit (Packard). Columns 4-6 show the concentration of compounds required to induce 50% cell death (IC50 in μM) of […]. With “+” meaning 3 μM<IC50≦10 μM and “++” IC50≦3 μM and “n.d.” means not determined. Few compounds were also tested on human melanoma cell MeI5.

[1] = test system: human melanoma A375 cells; assay: Tumor cell proliferation assay (ATP Lite), A375; assay type: cell-based; settings: A-375, 96 h, 4 days
Procedure: as §1, §2

[2] = test system: human pancreatic MiaPaCa-2 cells; assay: Tumor cell proliferation assay (ATP Lite), MiaPaCa-2; assay type: cell-based; settings: MIA PaCa-2, 96 h, 4 days
Procedure: as §1, §2

Sequence of human MEK1 (Q02750 whole entry): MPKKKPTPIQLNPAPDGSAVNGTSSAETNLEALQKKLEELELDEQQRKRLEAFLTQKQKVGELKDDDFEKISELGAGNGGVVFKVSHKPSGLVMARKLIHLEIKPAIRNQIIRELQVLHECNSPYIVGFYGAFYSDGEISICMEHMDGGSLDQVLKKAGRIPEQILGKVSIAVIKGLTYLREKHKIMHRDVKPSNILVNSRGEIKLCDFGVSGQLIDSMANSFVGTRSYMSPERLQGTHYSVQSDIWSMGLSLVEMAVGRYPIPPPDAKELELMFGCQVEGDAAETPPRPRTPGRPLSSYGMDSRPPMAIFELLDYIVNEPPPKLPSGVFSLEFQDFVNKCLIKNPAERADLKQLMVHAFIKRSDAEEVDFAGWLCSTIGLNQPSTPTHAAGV

| Compound | IC50 (human MEK1) | IC50 (Murine colon C26 cells) | IC50 [1] | IC50 [2] |
| --- | --- | --- | --- | --- |
| O=C(NCCN1CCOCC1)c1cc(Br)ncc1Nc1ccc(I)cc1F [Example 88, 2-Bromo-5-(2-fluoro-4-iodo-phenylamino)-N-(2-morpholin-4-yl-ethyl)-isonicotinamide] | < 1000 nM | 3 to 10 µM | 3 to 10 µM | 3 to 10 µM |
| O=C(O)CONC(=O)c1ccncc1Nc1ccc(I)cc1F [Example 92, [({3-[(2-fluoro-4-iodophenyl)amino]isonicotinoyl}amino)oxy]acetic acid] | < 1000 nM | 3 to 10 µM | ≤ 3 µM | 3 to 10 µM |
| O=C(NOC[C@H](O)CO)c1ccncc1Nc1ccc(I)cc1F [Example 7, N-{[(2R)-2,3-dihydroxypropyl]oxy}-3-[(2-fluoro-4-iodophenyl)-amino]isonicotin-amide] | < 1000 nM | ≤ 3 µM | ≤ 3 µM | ≤ 3 µM |
| Cc1cccc(NNC(=O)c2ccncc2Nc2ccc(I)cc2F)c1 [Example 90, 3-[(2-fluoro-4-iodophenyl)amino]-N′-(3-methylphenyl)isonicotino-hydrazide] | < 1000 nM | ≤ 3 µM | ≤ 3 µM | ≤ 3 µM |
| NC(=O)c1cc[n+]([O-])cc1Nc1ccc(I)cc1F [Example 97, 3-(2-Fluoro-4-iodo-phenylamino)-1-oxy-isonicotinamide] | < 1000 nM | ≤ 3 µM | ≤ 3 µM | ≤ 3 µM |
| O=C(NN1CCCCCC1)c1ccncc1Nc1ccc(I)cc1F [Example 42, N-azepan-1-yl-3-[(2-fluoro-4-iodophenyl)amino]isonicotinamide] | < 1000 nM | 3 to 10 µM | ≤ 3 µM | 3 to 10 µM |
| NC(=O)c1ccncc1Nc1ccc(I)cc1F [Example 12, 3-[(2-fluoro-4-iodophenyl)amino]isonicotinamide] | < 1000 nM | ≤ 3 µM | ≤ 3 µM | ≤ 3 µM |
| O=C(NOC[C@H](O)CO)c1ccnc(Cl)c1Nc1ccc(I)cc1F [Example 43, 2-Chloro-N-[(2R)-2,3-dihydroxy-propoxy]-3-(2-fluoro-4-iodo-phenylamino)-isonicotinamide] | < 1000 nM | 3 to 10 µM | ≤ 3 µM | 3 to 10 µM |
| O=C(NCCO)c1cc(Br)ncc1Nc1ccc(I)cc1F [Example 74, 2-Bromo-5-(2-fluoro-4-iodo-phenylamino)-N-(2-hydroxy-ethyl)-isonicotinamide] | < 1000 nM | 3 to 10 µM | ≤ 3 µM | 3 to 10 µM |
| CNC(=O)c1ccncc1Nc1ccc(I)cc1Cl [Example 22, 3-[(2-chloro-4-iodophenyl)amino]-N-methylisonicotinamide] | < 1000 nM | ≤ 3 µM | ≤ 3 µM | ≤ 3 µM |
| O=C(NN1CCCCC1)c1ccncc1Nc1ccc(I)cc1F [Example 19, 3-[(2-fluoro-4-iodophenyl)amino]-N-piperidin-1-ylisonicotinamide] | < 1000 nM | 3 to 10 µM | ≤ 3 µM | ≤ 3 µM |
| O=C(NCCCn1ccnc1)c1cc(Br)ncc1Nc1ccc(I)cc1F [Example 72, 2-Bromo-5-(2-fluoro-4-iodo-phenylamino)-N-(3-imidazol-1-yl-propyl)-isonicotinamide] | < 1000 nM | 3 to 10 µM | ≤ 3 µM | 3 to 10 µM |
| O=C(NCc1ccccc1)c1ccncc1Nc1ccc(I)cc1F [Example 21, N-benzyl-3-[(2-fluoro-4-iodophenyl)amino]isonicotinamide] | < 1000 nM | 3 to 10 µM | ≤ 3 µM | 3 to 10 µM |
| O=C(NNc1ccccn1)c1ccncc1Nc1ccc(I)cc1F [Example 49, 3-[(2-fluoro-4-iodophenyl)amino]-N′-pyridin-2-ylisonicotino-hydrazide] | < 1000 nM | ≤ 3 µM | ≤ 3 µM | ≤ 3 µM |
| O=C(NCCCCCO)c1ccncc1Nc1ccc(I)cc1Cl [Example 36, 3-(2-Chloro-4-iodo-phenylamino)-N-(5-hydroxy-pentyl)-isonicotinamide] | < 1000 nM | ≤ 3 µM | ≤ 3 µM | ≤ 3 µM |
| C[C@@H](O)CNC(=O)c1ccncc1Nc1ccc(I)cc1F [Example 48, 3-[(2-fluoro-4-iodophenyl)amino]-N-[(2R)-2-hydroxypropyl]-isonicotinamide] | < 1000 nM | ≤ 3 µM | ≤ 3 µM | ≤ 3 µM |
| O=C(NC1CC2CCC1C2)c1ccncc1Nc1ccc(I)cc1F (centres unmarked) [Example 82, N-bicyclo[2.2.1]hept-2-yl-3-[(2-fluoro-4-iodophenyl)amino]-isonicotinamide] | < 1000 nM | 3 to 10 µM | ≤ 3 µM | 3 to 10 µM |
| CCONC(=O)c1ccncc1Nc1ccc(I)cc1Cl [Example 76] | < 1000 nM | 3 to 10 µM | ≤ 3 µM | 3 to 10 µM |
| O=C(NOCc1ccccc1)c1ccncc1Nc1ccc(I)cc1F [Example 91, N-(benzyloxy)-3-[(2-fluoro-4-iodophenyl)amino]isonicotinamide] | < 1000 nM | 3 to 10 µM | ≤ 3 µM | 3 to 10 µM |
| CN(C)C(=O)c1ccncc1Nc1ccc(I)cc1Cl [Example 23, 3-[(2-chloro-4-iodophenyl)amino]-N-dimethylisonicotinamide] | < 1000 nM | ≤ 3 µM | ≤ 3 µM | ≤ 3 µM |
| O=C(NCCCN1CCCC1=O)c1ccncc1Nc1ccc(I)cc1F [Example 30, 3-[(2-fluoro-4-iodophenyl)amino]-N-[3-(2-oxopyrrolidin-1-yl)propyl]isonicotinamide] | < 1000 nM | ≤ 3 µM | ≤ 3 µM | ≤ 3 µM |
| Cc1nccc(C(N)=O)c1Nc1ccc(I)cc1F [Example 100, 3-(2-Fluoro-4-iodo-phenylamino)-2-methyl-isonicotinamide] | < 1000 nM | 3 to 10 µM | ≤ 3 µM | 3 to 10 µM |
| O=C(NCc1ccc(F)cc1F)c1ccncc1Nc1ccc(I)cc1F [Example 93, N-(2,4-difluorobenzyl)-3-[(2-fluoro-4-iodophenyl)amino]-isonicotinamide] | < 1000 nM | 3 to 10 µM | ≤ 3 µM | 3 to 10 µM |
| O=C(NCCCN1CCOCC1)c1ccncc1Nc1ccc(I)cc1F [Example 35, 3-[(2-fluoro-4-iodophenyl)amino]-N-(3-morpholin-4-ylpropyl)-isonicotinamide] | < 1000 nM | ≤ 3 µM | ≤ 3 µM | ≤ 3 µM |
| CCNC(=O)c1ccncc1Nc1ccc(I)cc1F [Example 18, N-ethyl-3-[(2-fluoro-4-iodophenyl)amino]isonicotinamide] | < 1000 nM | ≤ 3 µM | ≤ 3 µM | ≤ 3 µM |
| O=C(NCCOc1ccccc1)c1ccncc1Nc1ccc(I)cc1F [Example 26, 3-[(2-fluoro-4-iodophenyl)amino]-N-(2-phenoxyethyl)-isonicotinamide] | < 1000 nM | 3 to 10 µM | ≤ 3 µM | 3 to 10 µM |
| CONC(=O)c1ccncc1Nc1ccc(I)cc1Cl [Example 80, N-methoxy-3-(2-chloro-4-iodo-phenylamino)-isonicotinamide] | < 1000 nM | – | ≤ 3 µM | 3 to 10 µM |
